Measurements reported in PubChem BioAssay AID1159557 (GlaxoSmithKline (GSK), 2015).
Active and inactive are the calls of the source. The rule behind the calls is not given here.

System: Trypanosoma brucei growth inhibition
Experiment: trypanosome proliferation inhibitors (AID 1159557);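 note: parasites exposed to compound for 48 h before the resazurin readout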

| Structure (SMILES) | IC50 |
| --- | --- |
| O=C(NCC(c1cccnc1)N1CCc2ccccc2C1)C(=O)Nc1cccc(Cl)c1 (stereo unspecified) | 16000 nM |
| N#Cc1cnc(Nc2cccc(CCN3CCOCC3)c2)nc1Nc1ccccc1C(N)=O | 63 nM |
| CCOc1ccc(OCC(=O)N2c3ccccc3CC2C(=O)NC)cc1 (stereo unspecified) | 500 nM |
| O=C(Cn1cnc([N+](=O)[O-])n1)Nc1ccc(Cl)cc1C(=O)c1ccccc1 | 20000 nM |
| O=C(CSc1ccc(F)cc1)N[C@@H](Cc1cnc[nH]1)C(=O)NCCc1ccccc1 | > 40000 nM (inactive) |
| CC(=O)Nc1ccc(Nc2nccc(-c3cnn4ncccc34)n2)cc1C(F)(F)F | 32 nM |
| O=C(Nc1ccc(-c2nc3ccccc3c(=O)[nH]2)cc1)c1cccs1 | 250 nM |
| COc1ccc(C(C)N(C)c2ncc3c(N)nc(N)nc3n2)cc1F (stereo unspecified) | 13000 nM |
| O=C(NCc1nnc2n1CCCCC2)c1csc(-c2ccccc2)n1 | 320 nM |
| CN(Cc1nc2c(C(=O)N3CCN(Cc4ccccc4)CC3)cccc2[nH]1)C1CCCc2cccnc21 (stereo unspecified) | 630 nM |
| O=C(Nc1nccs1)c1ccccc1Cn1cc([N+](=O)[O-])cn1 | 320 nM |
| Cc1ccccc1NS(=O)(=O)c1ccc2[nH]cc(C(=O)NC3CCCC3)c(=O)c2c1 | 320 nM |
| COc1ccc(C(=O)Nc2cc(C(F)(F)F)ccc2N2CCOCC2)c(OC)c1 | 10000 nM |
| COc1ccc(S(=O)(=O)Nc2ccc(CN3CCN(C(=O)c4cccc(C#N)c4)CC3)cc2)cc1 | 400 nM |
| O=C(NCCc1ccccn1)C(c1cn[nH]c1)N1CCN(c2ccc(Cl)c(Cl)c2)CC1 (stereo unspecified) | 13000 nM |
| CN(C)Cc1cccc(Nc2nccc(-c3ccc(NCCN)c(C#N)c3)n2)c1 | 50 nM |
| CCCCc1cc(Nc2cc(C3CCC3)[nH]n2)nc(N2CCC2C(N)=O)n1 (stereo unspecified) | 130 nM |
| COc1ccc2ncc(F)c(CCN3CC[C@@H](NC(=O)c4cc5c(s4)CCC5)[C@@H](O)C3)c2n1 | 100 nM |
| Cn1nc(-c2ccc(NC(=O)Cc3ccccc3Cl)cc2)c2c(N)ncnc21 | 400 nM |
| Cc1cc2nc(CN(C)Cc3ncccc3C)[nH]c2cc1C | 630 nM |
| COc1ccc(C(=O)N2CCC(Nc3cccnc3)C2)c(OC)n1 (stereo unspecified) | > 40000 nM (inactive) |
| O=C(NCc1ccc(-n2cccc2)cc1)c1nc(Cn2ccc([N+](=O)[O-])n2)no1 | > 40000 nM (inactive) |

| Structure (SMILES) | IC50 |
| --- | --- |
| O=C(NCCc1cccnc1)c1ccc(-c2ccccc2F)o1 | 32000 nM |
| O=C(NCCNc1noc(-c2ccc([N+](=O)[O-])cc2)n1)c1ccc(Cl)cc1 | 3200 nM |
| O=C(c1cccc(Nc2ncc(-c3ccc4c(c3)OCO4)cn2)c1)N1CCOCC1 | 25000 nM |
| CCOc1ccc(Nc2ccc(S(=O)(=O)N3CCN(C)CC3)cc2[N+](=O)[O-])cc1OCC | 6300 nM |
| COc1ccc2ncc(=O)n(CCN3CC[C@H](NCc4ncc(Cl)c5[nH]ncc45)[C@H](O)C3)c2n1 | 320 nM |
| COc1ccc([N+](=O)[O-])cc1NC(=O)Nc1cccc(Cl)c1 | 6300 nM |
| Cc1nc2c(-c3cccs3)c(C)nn2c(NCCO)c1C | 130 nM |
| O=C(c1cccc(Nc2ncc(-c3ccc4c(c3)OCO4)cn2)c1)N1CCSC1 | 13000 nM |
| Nc1cc(-c2ccc3ncnc(N4CCOCC4)c3c2)cnc1N | 50 nM |
| CCC1Oc2cc(S(=O)(=O)N(C)CC(=O)N3CCc4ccccc4C3)c(C)cc2NC1=O (stereo unspecified) | 25000 nM |
| COc1ccc(C(=O)NC2CCN(CCn3c(=O)ccc4ncc(F)cc43)CC2)cc1Cl | 130 nM |
| CCn1c(-c2nonc2N)nc2c([C@@H](C)O)ncc(O[C@H](CN)c3ccccc3)c21 | 630 nM |
| CS(=O)(=O)c1cccc(-c2cnc(N)c3c(-c4ccc(CO)cc4)csc23)c1 | 2000 nM |
| O=C(Nc1cccc(S(=O)(=O)Nc2ccc(Br)cc2)c1)c1ccc([N+](=O)[O-])s1 | 200 nM |
| CC(C)(C)C(O)(CCc1ccc(Cl)cc1)Cn1cncn1 (stereo unspecified) | > 40000 nM (inactive) |
| Nc1ncnc2c1ncn2[C@@H]1O[C@H](CO)C[C@H]1O | 13 nM |
| COc1ncc(-c2ccc3ncnc(N4CCOCC4)c3c2)cc1NS(C)(=O)=O | 320 nM |
| COCc1cnc2c(c1SCc1c(F)cccc1Cl)c(=O)n(C)c(=O)n2C | 4000 nM |
| C[C@@H](Oc1cc(-n2cnc3ccc(O[C@H]4CCNC4)cc32)sc1C(N)=O)c1ccccc1Cl | 250 nM |
| COc1ccc2ncc(F)c(NC(=O)C3(O)CCC(NCc4ccc5c(c4)OCCO5)CC3)c2n1 (stereo unspecified) | 790 nM |
| Cc1cccnc1NC(=O)c1cccc(OCc2c(C)noc2C)c1 | 400 nM |
| CC(C)(C)C(Cn1ccnc1)NC(=O)c1ccc2nc(C3CC3)oc2c1 (stereo unspecified) | > 40000 nM (inactive) |

| Structure (SMILES) | IC50 |
| --- | --- |
| Cc1ccc(S(=O)(=O)Nc2ccc(CN3CCN(C(=O)c4cccc(C)c4)CC3)cc2)cc1 | 250 nM |
| CCN(CC)c1nc(N(C)C)nc2c1CN(Cc1ccccc1)CC2 | 20000 nM |
| O=C(CN1CCN(S(=O)(=O)c2cccc([N+](=O)[O-])c2)CC1)Nc1ccc(Oc2ccccc2)cc1 | 20000 nM |
| CN(CC1CCCO1)S(=O)(=O)c1ccc(C(=O)Nc2nc(-c3ccccn3)cs2)cc1 (stereo unspecified) | 500 nM |
| COc1ccnc2[nH]cc(-c3cc(C(=O)N[C@H](CO)c4ccccc4)co3)c12 | 5 nM |
| CC(Cn1ccnc1)NC(=O)COc1ccc(Cl)c(Cl)c1 (stereo unspecified) | > 40000 nM (inactive) |
| O=C(CN(Cc1ccccn1)Cc1ccccn1)NCc1csc(-c2cccs2)n1 | 20000 nM |
| O=C(Nc1nc(-c2ccc(F)cc2)cs1)c1ccc([N+](=O)[O-])s1 | 250 nM |
| CCN(CC)c1ncc(C(=O)c2ccc([N+](=O)[O-])o2)s1 | 100 nM |
| CCc1cccc(CC)c1-n1c(SCC(=O)NC(=O)NCc2ccco2)nnc1-c1cccnc1 | 400 nM |
| O=C1CSC(c2cccnc2)N1c1ccc(Cl)cc1Cl (stereo unspecified) | > 40000 nM (inactive) |
| Cc1ccc(NC(=O)c2ccc([N+](=O)[O-])s2)cc1S(=O)(=O)N1CCOCC1 | 250 nM |
| c1ccc2sc(Nc3nc4ncccc4[nH]3)nc2c1 | 1000 nM |
| O=C(NC1C(=O)N(c2ccccc2)C1c1cccnc1)c1ccc(Cl)s1 (stereo unspecified) | > 40000 nM (inactive) |
| OCC1CCCCN1c1cc(-c2ccccn2)nc(Nc2ccccc2)n1 (stereo unspecified) | 5000 nM |
| Clc1cc(Br)ccc1OCCCCn1ccnc1 | 10000 nM |
| O=C(CN(Cc1ccccn1)Cc1ccccn1)NCc1ccc(-c2csnn2)cc1 | 13000 nM |
| Cc1ccc(CNC2CCN(C[C@@H]3Cn4c(=O)ccc5ccc(=O)n3c54)CC2)cc1F | 1600 nM |
| O=[N+]([O-])c1ccc(-c2nnn(-c3cccnc3)n2)o1 | 320 nM |
| O=C(Nc1cccc(F)c1)N1CCC(Oc2cccc(-c3cccnc3)c2)CC1 | 25000 nM |
| NC(=O)c1ccccc1Nc1nc(NC2CCCCC2)nc2[nH]ccc12 | 500 nM |
| CNC(=O)C1Cc2ccccc2N1C(=O)Cc1ccc(OC)cc1 (stereo unspecified) | 400 nM |

| Structure (SMILES) | IC50 |
| --- | --- |
| CS(=O)(=O)N1CCC(Nc2ncc(Br)c(Nc3cccc(F)c3C(N)=O)n2)CC1 | 10 nM |
| CNS(=O)(=O)c1ccccc1Nc1nc(Nc2cc(C)nn2C)ncc1Cl | 63 nM |
| CNC(=O)C1Cc2ccccc2N1C(=O)COc1cccc(OC)c1 (stereo unspecified) | 630 nM |
| CN(C)S(=O)(=O)c1ccc(-c2cnc(N)c(-c3nc4ccc(F)cc4[nH]3)c2)cc1 | 400 nM |
| COc1cccc2sc(CN(C)C(=O)C3CNCCN3c3ccc(F)cc3)c(C)c12 (stereo unspecified) | 160 nM |
| O=C(Nc1ccc(S(=O)(=O)N2CCCC2)cc1)c1ccc([N+](=O)[O-])s1 | 160 nM |
| Cc1ccc(Nc2nc(-c3ccccn3)cc(N3CCCC(O)C3)n2)cc1 (stereo unspecified) | 3200 nM |
| CN(Cc1ccc(C(N)=O)cc1)C(c1ccc(F)cc1)c1cccnc1 (stereo unspecified) | > 40000 nM (inactive) |
| O=C(NCCc1csc(-c2cccc(F)c2)n1)c1ccco1 | 500 nM |
| Cc1[nH]nc(-c2nc3ccccc3[nH]2)c1C(=O)NC1CCCNC1 (stereo unspecified) | 400 nM |
| O=C(c1ccc(OCCCc2cnc[nH]2)cc1)C1CC1 | 10000 nM |
| COc1ccc(-c2cc(C)no2)cc1S(=O)(=O)Nc1ccc(F)c(Cl)c1 | 16000 nM |
| N#Cc1cccc(Cc2cc(Nc3cc(C4CC4)[nH]n3)nc(N3CC[C@H]3C(N)=O)n2)c1 | 40 nM |
| O=C(c1ccc(Cl)cc1)c1ccc(OC(=O)N2CCOCC2)cc1 | 7900 nM |
| CCc1ccccc1[C@@H](C)NC(=O)c1cnc2c(cnn2CC)c1NC1CCN(C(N)=O)CC1 | 250 nM |
| CCCCn1nnnc1CSc1nc(C)cc(C)c1C#N | > 40000 nM (inactive) |
| Cc1cccc(N2CCCN(Cc3c[nH]c4ccccc34)CC2)n1 | 13000 nM |
| Cc1nn(-c2nc3ccccc3s2)c2c1C(c1ccc(OCC(N)=O)cc1)SCC(=O)N2 (stereo unspecified) | 20 nM |
| O=C(CN1CCN(c2ccccn2)CC1)Nc1cc(S(=O)(=O)N2CCCCCC2)ccc1Cl | 13000 nM |
| O=c1cc(NCCCNCc2c[nH]c3ccc(Br)cc23)[nH]c2ccccc12 | 1000 nM |
| CN(Cc1ccc(F)cc1)c1ccc(OCC(=O)N2CCCCC2c2cccnc2)nn1 (stereo unspecified) | > 40000 nM (inactive) |
| CCCNC(=O)Nc1cccc(-c2nc3ncccc3o2)c1 | 500 nM |

| Structure (SMILES) | IC50 |
| --- | --- |
| COc1ccc(S(=O)(=O)Nc2ccc(C(=O)Nc3nc(-c4ccccn4)cs3)cc2)cc1 | 790 nM |
| N#Cc1ccc(C(=O)Nc2cccc(-c3cccc(CN4CCC(O)CC4)c3)c2)cc1 | 790 nM |
| Cc1ccc(C)c(-n2nnnc2Sc2nc([N+](=O)[O-])nn2C)c1 | 13000 nM |
| O=C(NCC1CCCCC1)c1cc(=O)c2ccccc2o1 | 1000 nM |
| Cc1nn(-c2nc(N)nc(-c3ccccn3)n2)c(C)c1Cc1ccccc1 | > 40000 nM (inactive) |
| O=C(CN(Cc1ccccn1)Cc1ccccn1)NC1Cc2ccccc2C1 | 20000 nM |
| COc1ccc2ncc(=O)n(CCN3CCC(NCc4ccc(-c5cccs5)cc4)CC3)c2n1 | 3200 nM |
| O=C(CCc1ccc(-c2ccccc2)o1)N1CCN(c2ccc(O)cc2)CC1 | 25000 nM |
| CC1=NN(C(=O)CCn2cnc([N+](=O)[O-])n2)C(O)(C(F)(F)F)C1 (stereo unspecified) | > 40000 nM (inactive) |
| CC(C)(C)CC(=O)NCCc1csc(-c2ccc(F)cc2)n1 | 630 nM |
| Cc1nn(-c2ccccc2)nc1CNC(=O)CN(Cc1ccccn1)Cc1ccccn1 | 32000 nM |
| COc1ccccc1CNc1cc(C2CC2)nc(-c2nccn2C)n1 | 2500 nM |
| O=C(CC1(O)C(=O)N(Cc2cccs2)c2ccc(Br)cc21)c1cccnc1 (stereo unspecified) | 630 nM |
| O=C(CC1(O)C(=O)N(Cc2ccccc2)c2ccc(Br)cc21)c1cccnc1 (stereo unspecified) | 630 nM |
| Cc1cccnc1CN1CCN(CCCOc2ccc(-c3ccc(C(N)=O)cc3)cc2)CC1 | 10000 nM |
| NC(=O)c1ncccc1Nc1nc(NC2CCC(O)CC2)ncc1Br (stereo unspecified) | 320 nM |
| CC1CN(Cc2ccc(C#N)cc2)CCN1c1ccc(NC(=O)c2ccccc2F)cc1 (stereo unspecified) | > 40000 nM (inactive) |
| Cc1nn(-c2nc(N)nc(-c3ccccn3)n2)c(N)c1-c1ccccc1 | 2000 nM |
